{
  "source": "patent US20110129883A1",
  "about": "“INACTIVATION OF GENES OF THE MEP PATHWAY” (BIOAGENCY AG, priority 2001, published 2011)",
  "tested_on": "E. coli transformed with the synthetic operon",
  "type": "cell-based",
  "data": [
    {"smiles": "O=CN(O)CCCP(=O)(O)O", "note": "[fosmidomycin]", "values": [
      {"measurement": "bacterial growth under fosmidomycin", "value": "at a reduced rate and died"}
    ]}
  ]
}
